Experimental data: ChEMBL document CHEMBL1201861, “Genomics of Drug Sensitity in Cancer screening data, Wellcome Trust Sanger Institute”

Key:
Test in all cases: cells
Format in all cases: functional, cell-based
Details in all cases: Homo sapiens
[1] = test system: HDLM-2;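 also: cell viability assay measuring suppression of HDLM-2 proliferation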
Description: SANGER: Inhibition of human HDLM-2 cell growth in a cell viability assay.

[2] = test system: NOS-1;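 also: growth inhibition of the human NOS-1 cell line, read out with a cell viability assay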
Description: SANGER: Inhibition of human NOS-1 cell growth in a cell viability assay.

[3] = test system: D-502MG
Description: SANGER: Inhibition of human D-502MG cell growth in a cell viability assay.

[4] = test system: CTB-1
Description: SANGER: Inhibition of human CTB-1 cell growth in a cell viability assay.

[5] = test system: SBC-1;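 also: cell viability assay measuring growth inhibition of the SBC-1 cell line, IC50 being the concentration that halves growth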
Description: SANGER: Inhibition of human SBC-1 cell growth in a cell viability assay.

[6] = test system: EW-16;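 also: growth inhibition of human EW-16 cells, read out as cell viability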
Description: SANGER: Inhibition of human EW-16 cell growth in a cell viability assay.

[7] = test system: CP66-MEL;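 also: growth inhibition of CP66-MEL cells determined in a cell viability assay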
Description: SANGER: Inhibition of human CP66-MEL cell growth in a cell viability assay.

[8] = test system: COLO-684
Description: SANGER: Inhibition of human COLO-684 cell growth in a cell viability assay.

[9] = test system: NEC8;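 also: growth inhibition of human NEC8 cells, read out by a cell viability assay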
Description: SANGER: Inhibition of human NEC8 cell growth in a cell viability assay.

[10] = test system: JVM-2;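 also: growth inhibition of JVM-2 cells determined by a cell viability assay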
Description: SANGER: Inhibition of human JVM-2 cell growth in a cell viability assay.

[11] = test system: GOTO;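 also: growth inhibition of GOTO cells, read out by a cell viability assay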
Description: SANGER: Inhibition of human GOTO cell growth in a cell viability assay.

[12] = test system: MEG-01;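 also: growth inhibition of MEG-01 cells, read out by a cell viability assay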
Description: SANGER: Inhibition of human MEG-01 cell growth in a cell viability assay.

[13] = test system: NCI-H1155;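 also: cell growth inhibition measured by a viability assay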
Description: SANGER: Inhibition of human NCI-H1155 cell growth in a cell viability assay.

[14] = test system: LS-513
Description: SANGER: Inhibition of human LS-513 cell growth in a cell viability assay.

[15] = test system: TE-12;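 also: growth inhibition of TE-12 cells, read out by a cell viability assay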
Description: SANGER: Inhibition of human TE-12 cell growth in a cell viability assay.

[16] = test system: MZ1-PC;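 also: cell viability assay measuring growth inhibition of human MZ1-PC cells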
Description: SANGER: Inhibition of human MZ1-PC cell growth in a cell viability assay.

[17] = test system: NCI-H1581;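 also: cell growth inhibition read out by a viability assay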
Description: SANGER: Inhibition of human NCI-H1581 cell growth in a cell viability assay.

[18] = test system: KP-N-YS;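 also: cell viability assay measuring inhibition of cell line growth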
Description: SANGER: Inhibition of human KP-N-YS cell growth in a cell viability assay.

[19] = test system: RH-1;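 also: growth inhibition of human RH-1 cells, read out with a cell viability assay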
Description: SANGER: Inhibition of human RH-1 cell growth in a cell viability assay.

[20] = test system: HCC1187;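 also: growth inhibition of HCC1187 cells, read out with a cell viability assay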
Description: SANGER: Inhibition of human HCC1187 cell growth in a cell viability assay.

[21] = test system: NMC-G1;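 also: growth inhibition of the NMC-G1 cell line, measured with a cell viability read-out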
Description: SANGER: Inhibition of human NMC-G1 cell growth in a cell viability assay.

[22] = test system: DEL;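 also: growth inhibition of the human DEL cell line, read out with a cell viability assay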
Description: SANGER: Inhibition of human DEL cell growth in a cell viability assay.

[23] = test system: KARPAS-45;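 also: inhibition of cell line growth, read out through a viability assay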
Description: SANGER: Inhibition of human KARPAS-45 cell growth in a cell viability assay.

[24] = test system: HT-144
Description: SANGER: Inhibition of human HT-144 cell growth in a cell viability assay.

[25] = test system: NTERA-2-cl-D1;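 also: inhibition of cell growth, measured with a cell viability assay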
Description: SANGER: Inhibition of human NTERA-S-cl-D1 cell growth in a cell viability assay.

[26] = test system: HD-MY-Z;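 also: growth inhibition of HD-MY-Z cells, read out with a cell viability assay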
Description: SANGER: Inhibition of human HD-MY-Z cell growth in a cell viability assay.

[27] = test system: LAMA-84;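 also: growth inhibition of LAMA-84 cells, read out with a cell viability assay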
Description: SANGER: Inhibition of human LAMA-84 cell growth in a cell viability assay.

[28] = test system: SW 962;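 also: growth inhibition of human SW962 cells, read out by a cell viability assay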
Description: SANGER: Inhibition of human SW962 cell growth in a cell viability assay.

[29] = test system: KE-37;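 also: growth inhibition of KE-37 cells, read out with a cell viability assay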
Description: SANGER: Inhibition of human KE-37 cell growth in a cell viability assay.

[30] = test system: Mo
Description: SANGER: Inhibition of human Mo-T cell growth in a cell viability assay.

[31] = test system: BE-13;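 also: growth inhibition of human BE-13 cells, measured with a cell viability assay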
Description: SANGER: Inhibition of human BE-13 cell growth in a cell viability assay.

[32] = test system: RS4-11;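 also: growth inhibition of RS4-11 cells, read out by a cell viability assay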
Description: SANGER: Inhibition of human RS4-11 cell growth in a cell viability assay.

[33] = test system: EW-18;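 also: growth inhibition of EW-18 cells, read out by a cell viability assay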
Description: SANGER: Inhibition of human EW-18 cell growth in a cell viability assay.

[34] = test system: KNS-42;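 also: growth inhibition of KNS-42 cells, read out with a cell viability assay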
Description: SANGER: Inhibition of human KNS-42 cell growth in a cell viability assay.

[35] = test system: IST-SL1;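 also: growth inhibition of human IST-SL1 cells, read out with a cell viability assay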
Description: SANGER: Inhibition of human IST-SL1 cell growth in a cell viability assay.

[36] = test system: D283 Med
Description: SANGER: Inhibition of human D-283MED cell growth in a cell viability assay.

[37] = test system: CGTH-W-1;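 also: growth inhibition of human CGTH-W-1 cells measured by cell viability assay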
Description: SANGER: Inhibition of human CGTH-W-1 cell growth in a cell viability assay.

[38] = test system: DJM-1;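 also: growth inhibition of human DJM-1 cells, read out by a cell viability assay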
Description: SANGER: Inhibition of human DJM-1 cell growth in a cell viability assay.

[39] = test system: GCIY;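 also: growth inhibition of the human GCIY cell line, read out by a cell viability assay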
Description: SANGER: Inhibition of human GCIY cell growth in a cell viability assay.

[40] = test system: RPMI-8226
Description: SANGER: Inhibition of human RPMI-8226 cell growth in a cell viability assay.

[41] = test system: SW872;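 also: growth inhibition of SW872 cells, read out by a viability assay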
Description: SANGER: Inhibition of human SW872 cell growth in a cell viability assay.

[42] = test system: EOL1;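 also: growth inhibition of EoL-1 cells, read out by a cell viability assay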
Description: SANGER: Inhibition of human EoL-1-cell cell growth in a cell viability assay.

[43] = test system: OMC-1;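 also: growth inhibition of the OMC-1 cell line, measured by a cell viability assay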
Description: SANGER: Inhibition of human OMC-1 cell growth in a cell viability assay.

[44] = test system: MZ2-MEL;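 also: growth inhibition of MZ2-MEL cells read out with a cell viability assay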
Description: SANGER: Inhibition of human MZ2-MEL cell growth in a cell viability assay.

[45] = test system: DB
Description: SANGER: Inhibition of human DB cell growth in a cell viability assay.

[46] = test system: SW684;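 also: growth inhibition of human SW684 cells, measured by a cell viability assay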
Description: SANGER: Inhibition of human SW684 cell growth in a cell viability assay.

[47] = test system: Calu-6;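 also: growth of human Calu-6 cells, read out by a cell viability assay, IC50 marking inhibition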
Description: SANGER: Inhibition of human Calu-6 cell growth in a cell viability assay.

[48] = test system: NCI-H209;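 also: growth inhibition of human NCI-H209 cells, measured by a cell viability assay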
Description: SANGER: Inhibition of human NCI-H209 cell growth in a cell viability assay.

[49] = test system: EW-24;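 also: human EW-24 cancer cell line, growth inhibition read out via a cell viability assay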
Description: SANGER: Inhibition of human EW-24 cell growth in a cell viability assay.

[50] = test system: TE-8;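 also: growth inhibition of TE-8 cells, measured with a cell viability readout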
Description: SANGER: Inhibition of human TE-8 cell growth in a cell viability assay.

[51] = test system: CW-2;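 also: growth inhibition of CW-2 cells, read out by a cell viability assay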
Description: SANGER: Inhibition of human CW-2 cell growth in a cell viability assay.

[52] = test system: NOMO-1;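 also: growth inhibition of human NOMO-1 cells measured by a cell viability assay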
Description: SANGER: Inhibition of human NOMO-1 cell growth in a cell viability assay.

[53] = test system: A704;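 also: growth inhibition of human A704 cells, read out with a cell viability assay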
Description: SANGER: Inhibition of human A704 cell growth in a cell viability assay.

[54] = test system: MC116;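 also: growth inhibition of MC116 cells, read out with a cell viability assay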
Description: SANGER: Inhibition of human MC116 cell growth in a cell viability assay.

[55] = test system: MFM-223
Description: SANGER: Inhibition of human MFM-223 cell growth in a cell viability assay.

[56] = test system: EW-1;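 also: growth inhibition of the human EW-1 cell line, read out by a cell viability assay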
Description: SANGER: Inhibition of human EW-1 cell growth in a cell viability assay.

[57] = test system: HC-1;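 also: growth inhibition of HC-1 cells measured by a cell viability assay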
Description: SANGER: Inhibition of human HC-1 cell growth in a cell viability assay.

[58] = test system: MZ7-mel;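 also: growth inhibition of human MZ7-mel cells, measured by a cell viability assay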
Description: SANGER: Inhibition of human MZ7-mel cell growth in a cell viability assay.

[59] = test system: SK-N-DZ;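 also: growth inhibition of the cancer cell line, read out through a viability assay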
Description: SANGER: Inhibition of human SK-N-DZ cell growth in a cell viability assay.

[60] = test system: ES5;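 also: growth inhibition of human ES5 cells, read out by a cell viability assay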
Description: SANGER: Inhibition of human ES5 cell growth in a cell viability assay.

[61] = test system: SK-LMS-1
Description: SANGER: Inhibition of human SK-LMS-1 cell growth in a cell viability assay.

[62] = test system: LC-2-ad
Description: SANGER: Inhibition of human LC-2-ad cell growth in a cell viability assay.

[63] = test system: ES7
Description: SANGER: Inhibition of human ES7 cell growth in a cell viability assay.

[64] = test system: RKO
Description: SANGER: Inhibition of human RKO cell growth in a cell viability assay.

[65] = test system: BB49-HNC
Description: SANGER: Inhibition of human BB49-HNC cell growth in a cell viability assay.

[66] = test system: CTV-1
Description: SANGER: Inhibition of human CTV-1 cell growth in a cell viability assay.

## Cn1cc(/C=C2\C(=O)Nc3cccnc32)c2ccccc21
[1]
  IC50: > 2000 nM
[2]
  IC50: > 2000 nM
[3]
  IC50: > 2000 nM
[4]
  IC50: > 2000 nM
[5]
  IC50: > 2000 nM
[6]
  IC50: > 2000 nM
[7]
  IC50: > 2000 nM
[8]
  IC50: > 2000 nM
[9]
  IC50: 1230 nM
[10]
  IC50: > 2000 nM
[11]
  IC50: > 2000 nM
[12]
  IC50: > 2000 nM
[13]
  IC50: > 2000 nM
[14]
  IC50: > 2000 nM
[15]
  IC50: > 2000 nM
[16]
  IC50: > 2000 nM
[17]
  IC50: > 2000 nM
[18]
  IC50: > 2000 nM
[19]
  IC50: > 2000 nM
[20]
  IC50: > 2000 nM
[21]
  IC50: > 2000 nM
[22]
  IC50: > 2000 nM
[23]
  IC50: > 2000 nM
[24]
  IC50: > 2000 nM
[25]
  IC50: > 2000 nM
[26]
  IC50: > 2000 nM
[27]
  IC50: > 2000 nM
[28]
  IC50: > 2000 nM
[29]
  IC50: > 2000 nM
[30]
  IC50: > 2000 nM
[31]
  IC50: > 2000 nM
[32]
  IC50: > 2000 nM
[33]
  IC50: > 2000 nM
[34]
  IC50: > 2000 nM
[35]
  IC50: > 2000 nM
[36]
  IC50: > 2000 nM
[37]
  IC50: > 2000 nM
[38]
  IC50: > 2000 nM
[39]
  IC50: > 2000 nM
[40]
  IC50: > 2000 nM
[41]
  IC50: > 2000 nM
[42]
  IC50: > 2000 nM
[43]
  IC50: > 2000 nM
[44]
  IC50: > 2000 nM
[45]
  IC50: > 2000 nM
[46]
  IC50: > 2000 nM
[47]
  IC50: > 2000 nM
[48]
  IC50: > 2000 nM
[49]
  IC50: > 2000 nM
[50]
  IC50: > 2000 nM
[51]
  IC50: > 2000 nM
[52]
  IC50: > 2000 nM
[53]
  IC50: > 2000 nM
[54]
  IC50: > 2000 nM
[55]
  IC50: > 2000 nM
[56]
  IC50: > 2000 nM
[57]
  IC50: > 2000 nM
[58]
  IC50: > 2000 nM
[59]
  IC50: > 2000 nM
[60]
  IC50: > 2000 nM
[61]
  IC50: > 2000 nM
[62]
  IC50: > 2000 nM
[63]
  IC50: > 2000 nM
[64]
  IC50: > 2000 nM
[65]
  IC50: > 2000 nM
[66]
  IC50: > 2000 nM

## CO[C@@]12[C@H](COC(N)=O)C3=C(C(=O)C(C)=C(N)C3=O)N1C[C@@H]1N[C@@H]12 [MITOMYCIN]
[1]
  IC50: 1460 nM
[2]
  IC50: 1500 nM
[3]
  IC50: > 16000 nM
[4]
  IC50: 306 nM
[5]
  IC50: 448 nM
[6]
  IC50: < 62.5 nM
[7]
  IC50: 645 nM
[8]
  IC50: 799 nM
[9]
  IC50: 187 nM
[10]
  IC50: 397 nM
[11]
  IC50: 554 nM
[12]
  IC50: 683 nM
[13]
  IC50: 873 nM
[14]
  IC50: 1180 nM
[15]
  IC50: 190 nM
[16]
  IC50: 450 nM
[17]
  IC50: 907 nM
[19]
  IC50: 49.6 nM
[20]
  IC50: 8920 nM
[21]
  IC50: 217 nM
[22]
  IC50: 48.4 nM
[23]
  IC50: 2270 nM
[24]
  IC50: 23.8 nM
[25]
  IC50: < 62.5 nM
[26]
  IC50: 640 nM
[27]
  IC50: 642 nM
[28]
  IC50: 158 nM
[29]
  IC50: < 62.5 nM
[30]
  IC50: 8910 nM
[31]
  IC50: < 62.5 nM
[32]
  IC50: 34.9 nM
[33]
  IC50: 3940 nM
[34]
  IC50: 1090 nM
[35]
  IC50: 1450 nM
[36]
  IC50: 221 nM
[37]
  IC50: 38.7 nM
[38]
  IC50: 1030 nM
[39]
  IC50: 411 nM
[40]
  IC50: 1240 nM
[41]
  IC50: < 62.5 nM
[42]
  IC50: 162 nM
[43]
  IC50: 390 nM
[44]
  IC50: 432 nM
[45]
  IC50: 430 nM
[46]
  IC50: > 16000 nM
[47]
  IC50: 320 nM
[48]
  IC50: < 62.5 nM
[49]
  IC50: 783 nM
[50]
  IC50: 35.9 nM
[51]
  IC50: 7730 nM
[52]
  IC50: 151 nM
[53]
  IC50: 2380 nM
[54]
  IC50: 1420 nM
[55]
  IC50: 10400 nM
[56]
  IC50: 88.1 nM
[57]
  IC50: 157 nM
[58]
  IC50: 333 nM
[59]
  IC50: 2390 nM
[60]
  IC50: 102 nM
[61]
  IC50: 439 nM
[62]
  IC50: < 62.5 nM
[63]
  IC50: < 62.5 nM
[64]
  IC50: 125 nM
[65]
  IC50: 353 nM
[66]
  IC50: 18.7 nM
